This passage reports IC50 results from patent US12653809B2, “Urea, amide, and substituted heteroaryl compounds for CBL-B inhibition” (Nurix Therapeutics, Inc., priority 2019, dated 2026).

For this assay, the target named is T1, Cbl-b (truncated variant, UniProt number Q13191) (Homo sapiens, UniProt Q13191).
T1 construct: made in house
Put plainly: Cbl-b activity assay (TR-FRET, interaction of Cbl-b with UbcH5B-Ub). Format: biochemical. An excerpt:
As described in Biological Example 1A, a Cbl-b activity assay (Cbl-b inhibition assay) used to measure the IC50 values for Cbl-b inhibition uses a mixture comprising candidate compound, Cbl-b (truncated, with an Avitag, and biotinylated), a fluorescently-labeled E2 enzyme UbcH5B labelled with ubiquitin conjugated to BODIPY-fluorescein (UbcH5B-Ub), streptavidin-terbium, and assay buffer. In one embodiment, the Cbl-b activity assay (Cbl-b inhibition assay) used to measure IC50 for inhibition of Cbl-b uses the conditions described in Biological Example 1A with 12 nM Cbl-b. […] In another embodiment, the Cbl-b activity assay (Cbl-b inhibition assay) used to measure IC50 for inhibition of Cbl-b uses the conditions described in Biological Example 1B, with candidate compound, 0.125 nM Cbl-b (truncated, with an avitag, and biotinylated), fluorescently labelled inhibitor probe, and assay buffer. Displacement of the inhibitor probe indicates Cbl-b activity.
Candidate compounds isolated from screening assays were evaluated for their ability to bind and inhibit Cbl-b, an E3 ubiquitin-protein ligase.
The ability of candidate compounds to inhibit Cbl-b activity was measured by monitoring the interaction of Cbl-b with UbcH5B-Ub in the presence of the candidate compound. A truncated variant of Cbl-b (UniProt number Q13191; SEQ ID NO:1) containing an Avitag at its N-terminus was co-expressed with BirA biotin ligase and purified using a standard protocol (see Dou et al., Nature Structural and Molecular Biology 8: 982-987, 2013; Avidity LLC).
Fluorescently labeled UbcH5B-Ub was prepared by conjugating ubiquitin (Ub), labeled at its N-terminus with Bodipy-Fluorescein, to UbcH5B, an E2 enzyme, harboring a cysteine to lysine mutation at position 85. This mutation is similar to a mutation that was previously reported (see Dou et al., Nature Structural and Molecular Biology 8: 982-987, 2013). Cbl-b activity assays were performed in a 384-well plate at room temperature in a 10 μL reaction volume by pre-incubating 12 nM Cbl-b (final concentration) in an assay buffer containing 50 mM HEPES pH 7.0, 100 mM NaCl, 0.01% Triton X-100, 0.01% BSA, and 1 mM DTT in the presence of a candidate compound in 1% DMSO (final concentration, High Conditions) for one hour. After incubation in the presence of the candidate compound, the plate was incubated for an additional 1.5 hours in the presence of 60 nM Src kinase with 1 mM ATP and 5 mM MgCl2 (final concentrations). Alternatively, compounds were tested as described above with assay buffer containing 50 mM NaCl instead of 100 mM NaCl and 30 nM Src kinase instead of 60 nM Src kinase (Low Conditions). Src kinase was prepared as previously described (see Kobashigawa et al., Proc Natl Acad Sci USA, 108: 20579-20584, 2011). […] The plate was incubated for one hour. Following the one hour incubation, the plates were read for TR-FRET signal at 520/620 nm using Envision plate reader (Perkin Elmer). The presence of a FRET signal that indicated Cbl-b was not inhibited by the compound candidate. The absence of a FRET signal indicated Cbl-b was inhibited by the compound candidate and was therefore a Cbl-b inhibitor.
The resulting data for the Cbl-b activity assays were analyzed using standard methods to report the IC50 values of the tested compounds (Tables 3-4). The resulting data for the Cbl-b binding assay was solvent corrected and double-referenced prior to analysis. All data were globally fit to a steady-state affinity and kinetic binding model where applicable. Compounds were ranked into bins A through D as follows for IC50: A indicates <0.1 μM, B indicates 0.1 μM≤IC50<1 μM, C indicates 1 μM≤IC50<5 μM, and D indicates 5 μM≤IC50.

Where [1] appears, read: Biological Example 1A, low or high conditions not stated, read-out: IC50 values in the Cbl-b inhibition assay of Biological Example 1A.
[2] abbreviates: high conditions: 100 mM NaCl, 60 nM Src kinase, 12 nM Cbl-b, read-out: Cbl-b activity IC50.

In general, IC50 refers to the point on the concentration scale where inhibition reaches its midpoint.

Each structure is given as a SMILES string. Where two headings read alike, the source gives them in different places.

T1 sequence (Q13191 36-427): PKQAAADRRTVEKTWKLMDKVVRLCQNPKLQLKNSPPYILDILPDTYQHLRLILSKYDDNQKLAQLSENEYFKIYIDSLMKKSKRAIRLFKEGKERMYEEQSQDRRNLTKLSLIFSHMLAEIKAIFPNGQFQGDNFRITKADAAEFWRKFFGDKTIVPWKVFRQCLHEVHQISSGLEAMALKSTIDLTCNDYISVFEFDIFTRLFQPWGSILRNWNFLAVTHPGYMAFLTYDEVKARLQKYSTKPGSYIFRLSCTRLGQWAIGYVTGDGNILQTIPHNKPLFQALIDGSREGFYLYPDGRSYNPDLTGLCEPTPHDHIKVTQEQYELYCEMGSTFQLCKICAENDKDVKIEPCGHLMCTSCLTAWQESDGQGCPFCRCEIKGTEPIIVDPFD

Regarding `C[C@@H](Sc1nncn1C)c1cccc(-c2cc(-c3ccccc3)no2)c1` [Example 68, (R)-5-(3-(1-((4-methyl-4H-1,2,4-triazol-3-yl)thio)ethyl)phenyl)-3-phenylisoxazole], the IC50 is not below 5000 nM under setting [1] and not below 5000 nM under setting [2].
As to `CC(Sc1nncn1C)c1cccc(C(=O)Nc2cc3ccccc3cn2)c1` (centres unmarked) [Example 122, N-(isoquinolin-3-yl)-3-(1-((4-methyl-4H-1,2,4-triazol-3-yl)thio)ethyl)benzamide], the IC50 runs as follows: under setting [1], less than 100 nM; (low conditions: 50 mM NaCl, 30 nM Src kinase, 12 nM Cbl-b, read-out: Cbl-b activity IC50) less than 100 nM.
On to `C[C@H](Cc1nncn1C)c1cccc(-c2n[nH]c3cc(C4CCC4)cnc23)c1` [Example 120, (R)-6-cyclobutyl-3-(3-(1-(4-methyl-4H-1,2,4-triazol-3-yl)propan-2-yl)phenyl)-1H-pyrazolo[4,3-b]pyridine], for which, under setting [2], the IC50 lay within 1000 to 5000 nM.
Same read-out and setting: next, `C[C@H](Sc1nncn1C)c1cccc(NC(=O)N2CCN(C3CC3)C(=O)C2)c1` [Example 156, (S)-4-cyclopropyl-N-(3-(1-((4-methyl-4H-1,2,4-triazol-3-yl)thio)ethyl)phenyl)-3-oxopiperazine-1-carboxamide]: not below 5000 nM.
As for `CC(Sc1nncn1C)c1cccc(-c2cc(-c3cccc(C(F)(F)F)c3)no2)c1` (centres unmarked) [Example 69, 5-(3-(1-((4-methyl-4H-1,2,4-triazol-3-yl)thio)ethyl)phenyl)-3-(3-(trifluoromethyl)phenyl)isoxazole], the IC50 under setting [1] fell in the range of 1000 to 5000 nM and the IC50 under setting [2] is 1000 to 5000 nM.
Take `CC1CCN(C(=O)Nc2cccc([C@H](C)Sc3nncn3C)c2)C1` (stereo partly drawn) [Example 41, 3-methyl-N-(3-((S)-1-((4-methyl-4H-1,2,4-triazol-3-yl)thio)ethyl)phenyl)pyrrolidine-1-carboxamide]: under setting [2], the IC50 is not below 5000 nM.
The same measure, in the same setting: next, `C[C@H](Cc1nncn1C)c1cccc(-c2n[nH]c3c(N4CC(O)C4)cc(C(F)(F)F)nc23)c1` [Example 110, (R)-1-(3-(3-(1-(4-methyl-4H-1,2,4-triazol-3-yl)propan-2-yl)phenyl)-5-(trifluoromethyl)-1H-pyrazolo[4,3-b]pyridin-7-yl)azetidin-3-ol]: 100 to 1000 nM.
Regarding `C[C@H](Cc1nncn1C)c1cccc(-c2n[nH]c3c(N4CC[C@@H](O)C4)cc(C(F)(F)F)nc23)c1` [Example 112, (R)-1-(3-(3-((R)-1-(4-methyl-4H-1,2,4-triazol-3-yl)propan-2-yl)phenyl)-5-(trifluoromethyl)-1H-pyrazolo[4,3-b]pyridin-7-yl)pyrrolidin-3-ol], under setting [2], the half-maximal inhibitory concentration (IC50) lay in the range of 100 to 1000 nM.
As to `C[C@H](Sc1nncn1C)c1cccc(-n2ncc(-c3ccc(C(=O)O)cc3)n2)c1` [Example 80, (S)-4-(2-(3-(1-(4-methyl-4H-1,2,4-triazol-3-ylthio)ethyl)phenyl)-2H-1,2,3-triazol-4-yl)benzoic acid], the IC50 under setting [1] is not below 5000 nM and the IC50 under setting [2] was not below 5000 nM.
Consider `C[C@H](Sc1nncn1C)c1cccc(NC(=O)N2CCC23CCOC3)c1` (stereo partly drawn) [Example 130, N-(3-((S)-1-((4-methyl-4H-1,2,4-triazol-3-yl)thio)ethyl)phenyl)-6-oxa-1-azaspiro[3.4]octane-1-carboxamide], for which, under setting [2], the IC50 was not below 5000 nM.
For the compound `CNC(=O)C1(C)CCN(C(=O)Nc2cccc([C@H](C)Cc3nncn3C)c2)C1` (stereo partly drawn) [Example 12, N^3,3-dimethyl-N′-(3-((R)-1-(4-methyl-4H-1,2,4-triazol-3-yl)propan-2-yl)phenyl)pyrrolidine-1,3-dicarboxamide], the IC50 runs as follows: under setting [1], not below 5000 nM; under setting [2], not below 5000 nM.
On to `C[C@H](Sc1nncn1C)c1cccc(-c2cc(-c3ccccc3)n[nH]2)c1` [Example 102, (S)-4-methyl-3-((1-(3-(3-phenyl-1H-pyrazol-5-yl)phenyl)ethyl)thio)-4H-1,2,4-triazole], for which the 50% inhibitory concentration (IC50) under setting [1] was 100 to 1000 nM and the IC50 under setting [2] was 100 to 1000 nM.
In the case of `C[C@H](Sc1nncn1C)c1cccc(NC(=O)N2CCOCC2)c1` [Example 128, N-[3-[(1S)-1-[(4-methyl-4H-1,2,4-triazol-3-yl)sulfanyl]ethyl]phenyl]morpholine-4-carboxamide], the IC50 under setting [2] was not below 5000 nM.
In the case of `C[C@H](Sc1nncn1C)c1cccc(-n2ncc(-c3ccc(C#N)cc3)n2)c1` [Example 88, (S)-4-(2-(3-(1-(4-methyl-4H-1,2,4-triazol-3-ylthio)ethyl)phenyl)-2H-1,2,3-triazol-4-yl)benzonitrile], the IC50 was in the range of 100 to 1000 nM under setting [1] and 100 to 1000 nM under setting [2].
Consider `C[C@H](Sc1nncn1C)c1cccc(NC(=O)N2CC(c3cnn(C)c3)C(C)(C)C2)c1` (stereo partly drawn) [Example 53, 3,3-dimethyl-4-(1-methyl-1H-pyrazol-4-yl)-N-(3-((S)-1-((4-methyl-4H-1,2,4-triazol-3-yl)thio)ethyl)phenyl)pyrrolidine-1-carboxamide], for which the IC50 under setting [2] is not below 5000 nM.
For `C[C@H](Sc1nncn1C)c1cccc(NC(=O)N2CCOC3(CCC3)C2)c1` [Example 43, (S)—N-(3-(1-((4-methyl-4H-1,2,4-triazol-3-yl)thio)ethyl)phenyl)-5-oxa-8-azaspiro[3.5]nonane-8-carboxamide], the half-maximal inhibitory concentration (IC50) under setting [2] is not below 5000 nM.
The same measure, in the same setting: the figure for `C[C@H](Sc1nncn1C)c1cccc(NC(=O)N2CCC(c3ccccc3)C2)c1` (stereo partly drawn) [Example 127, N-(3-((S)-1-((4-methyl-4H-1,2,4-triazol-3-yl)thio)ethyl)phenyl)-3-phenylpyrrolidine-1-carboxamide] is not below 5000 nM.
On to `C[C@H](Cc1nncn1C)c1cccc(NC(=O)N2CCC(C(=O)O)(C(F)(F)F)C2)c1` (stereo partly drawn) [Example 15, 1-((3-((R)-1-(4-methyl-4H-1,2,4-triazol-3-yl)propan-2-yl)phenyl)carbamoyl)-3-(trifluoromethyl)pyrrolidine-3-carboxylic acid], for which the IC50 under setting [1] lay in the range of 1000 to 5000 nM and the IC50 under setting [2] lay in the range of 1000 to 5000 nM.
`C[C@H](Sc1nncn1C)c1cccc(-n2cc(-c3cccc(Cl)c3)nn2)c1` [Example 79, 4-(3-chlorophenyl)-1-{3-[(1S)-1-[(4-methyl-4H-1,2,4-triazol-3-yl)sulfanyl]ethyl]phenyl}-1H-1,2,3-triazole]: the half-maximal inhibitory concentration (IC50) under setting [2] lay within 1000 to 5000 nM.
Regarding `C[C@H](Sc1nncn1C)c1cccc(NC(=O)N(C)C2CCC2)c1` [Example 49, (S)-1-cyclobutyl-1-methyl-3-(3-(1-((4-methyl-4H-1,2,4-triazol-3-yl)thio)ethyl)phenyl)urea], the IC50 under setting [2] is not below 5000 nM.
Take `CNC(=O)c1ccc(-c2cc(-c3cccc([C@H](C)Sc4nncn4C)c3)on2)cc1` [Example 65, (S)—N-methyl-4-(5-(3-(1-(4-methyl-4H-1,2,4-triazol-3-ylthio)ethyl)phenyl)isoxazol-3-yl)benzamide]: the IC50 is, setting by setting: under setting [1], 1000 to 5000 nM; under setting [2], 1000 to 5000 nM.
As to `C[C@H](Sc1nncn1C)c1cccc(-c2cc(-c3cccc(Cl)c3)no2)c1` [Example 58, 3-[[(1S)-1-[3-[3-(3-chlorophenyl)-1,2-oxazol-5-yl]phenyl]ethyl]sulfanyl]-4-methyl-4H-1,2,4-triazole], under setting [2], the IC50 lay within 1000 to 5000 nM.
Same read-out and setting: next, `C[C@H](Cc1nncn1C)c1cccc(NC(=O)N2CCOc3cc(Br)cnc32)c1` [Example 21, (R)-7-bromo-N-(3-(1-(4-methyl-4H-1,2,4-triazol-3-yl)propan-2-yl)phenyl)-2,3-dihydro-4H-pyrido[3,2-b][1,4]oxazine-4-carboxamide]: 100 to 1000 nM.
